From patent US20260069606A1, “Oxidative Stress and Diabetes Treatment with Cobinamide” (The Regents of the University of California, priority 2022, published 2026)
“And” between values parts separate entries of the source, which are not always exact repeats. Equal values may be shown once. Read-outs that look alike come from different tables or passages of the source.

Tests used:
[1] = Reaction with superoxide, hypoxanthine-xanthine oxidase-cytochrome c reduction system; format: biochemical; settings: for Apparent rate constant, reaction with superoxide (O2·^−): second order, hypoxanthine-xanthine oxidase-cytochrome c system, new data of this study
Procedure: FIGS. 1A-1G. Cobinamide Functions as a Superoxide Dismutase Mimetic. FIGS. 1A-1B. Chemical structures of aquohydroxo-cobinamide (FIG. 1A) and hydroxo-cobalamin (FIG. 1B). FIGS. 1C, 1E. Increasing concentrations of Chi(III) (FIG. 1C) or Chi(II) (FIG. 1E) were incubated in a hypoxanthine-xanthine oxidase-cytochrome c-catalase system for measuring O2·^−, with the change in absorbance at 550 nm (ΔAbs) plotted versus time. A no substrate (no hypoxanthine) control was included. FIGS. 1D, 1F. The calculated rate of change of absorbance at 550 nm in the absence of Chi(III) or Chi(II) (Vo) divided by the calculated rate in their presence (v) is plotted against the Chi(III) (FIG. 1D) or Chi(II) (FIG. 1F) concentration, respectively. The slope of the fitted line was used to calculate the apparent rate constant according to the following equation: kCbi=slope×kcytochrome c×[cytochrome c], where kcytochrome c=1.4×10^6 M^−1 s^−1 and [cytochrome c]=70 μM^70. The data shown are the mean of duplicate samples from one experiment, with similar results found in two additional experiments. Dotted lines show 95% confidence intervals. FIG. 1G. A 20 μM solution of Chi(III) in DMSO was scanned from 280 to 600 nm yielding the spectrum shown as a black line. An equimolar amount of […] (KO2) dissolved in dimethyl sulfoxide (DMSO) was added and the solution was scanned immediately, yielding the grey line. […] The experiment was conducted three times with identical results.
(§1) Table I. Reaction Rates of Cobinamide (Cbi), Cobalamin, Imisopasem, and MnTBAP with Reactive Oxygen and Nitrogen Species. Reactions of the indicated compounds with O2·^−, ONOO^−, and ·NO are all second order reactions with rate constants in units of M^−1 s^−1. The reactions of Cbi(III) and Cbi(II) with H2O2 are third order with rate constant units of M^−2 s^−1. Chi(II) and cobalamin(II) bind nitric oxide, so a Ka is shown in units of M^−1. For the new data presented in this study, rate constants were measured for O2·^− using a hypoxanthine-xanthine oxidase-cytochrome c system, for H2O2 using a H2O2-specific sensor (World Precision Instruments), and for ONOO^− using a stopped-flow instrument. Published rate constants for Cu/Zn and Mn superoxide dismutases (SOD) and catalase are shown for reference.^a,b Letters and numbers in parenthesis refer to footnotes and references, respectively.
The reaction of cobinamide with O2·^− was studied in two different systems, generating O2·^− using a hypoxanthine-xanthine oxidase system.
The first system contained 100 μM hypoxanthine and 0.1 unit xanthine oxidase in 20 mM sodium phosphate buffer, pH 7.1. The amount of O2·^− was measured by following reduction of ferric-cytochrome c (70 μM) at 550 nm as described previously^65. Catalase was included (32 units per sample), because xanthine oxidase generates both O2·^− and H2O2, and the latter can re-oxidize the ferro-cytochrome c product^34,66. The reaction was followed for 10 min. A no substrate blank lacking hypoxanthine was included.
In both systems, the experiments were conducted in the absence and presence of the indicated concentrations of Cbi(III) or Chi(II) 65.
Catalase was included in the reaction mixture, because the hypoxanthine-xanthine oxidase system also generates H2O2 and the latter can oxidize the ferro-cytochrome c product back to ferric-cytochrome c, thereby interfering with the kinetic measurement^34.

[2] = Reaction with hydrogen peroxide, H2O2-specific electrode; format: biochemical
Procedure: (§2) FIGS. 2A-2F. Cobinamide Functions as a Catalase Mimetic and Reacts with Peroxynitrite. […]. Hydrogen peroxide (final concentration 50 μM) was added to solutions containing increasing concentrations of Chi(III) (FIG. 2A) or Chi(II) (FIG. 2C), and the H2O2 concentration was measured over time using a H2O2-specific electrode. The log of the velocity in the presence of Chi(III) (FIG. 2B) or Chi(II) (v) (FIG. 2D) over the velocity in their absence (Vo) is plotted against the log of their concentrations at 20 min over their concentrations at zero time. These plots yield a reaction order with respect to Chi(III) and Cbi(II) of 0.7. The experiments were repeated three times with similar results. Dotted lines show 95% confidence intervals. FIG. 2E. […] The Chi(III) spectra are slightly different from those shown in FIG. 1G because at pH 11, dihydroxo-cobinamide is generated, whereas at pH 7.1, aquohydroxo-cobinamide is the predominant species. The spectra of aquohydroxo- and dihydroxo-cobinamide are known to be different^65. FIG. 2F. Varying concentrations of Chi(II) from 1 to 10 μM were mixed with 10 μM peroxynitrite in a stopped-flow instrument, and absorption at 315 nm was monitored for 0.5 sec. The results for 5 μM Cbi(II) are shown; red circles are the observed data, and the black line is a two-phase non-linear regression curve generated by Prism 7.04 software. […] The experiment was repeated three times with similar results. Dotted lines show 95% confidence intervals.
as §1
Both Cbi(III) and Chi(II) react with H2O2, and the reaction was essentially first order with respect to Cbi(III) and Cbi(II) (FIG. 2A-D), and second order with respect to H2O2 for both cobinamide species. […]

[3] = Reaction with peroxynitrite, stopped-flow; format: biochemical
Procedure: as §2
as §1, with “Chi(II) and cobalamin(II) bind nitric oxide, so a Ka is shown in units of M^−1.” left out, “Published rate constants for Cu/Zn and Mn superoxide dismutases (SOD) and catalase are shown for reference.^a,b Letters and numbers in parenthesis refer to footnotes and references, respectively.” left out

[4] = system: Jun N-terminal kinase (JNK) phosphorylation in H9c2 cells; assay: H2O2-induced JNK phosphorylation, immunoblotting; format: cell-based, rat; settings: for JNK phosphorylation in H2O2-treated cells: H9c2, 100 μM H2O2 30 min, drugs at 100 μM
Text: (§3) FIGS. 3A-3H. […] FIGS. 3A-3B. […] FIG. 3A. […] FIG. 3B. […] FIGS. 3C-3D. […] FIG. 3D. […] FIGS. 3E-3F. […] FIG. 3E. Representative blots are shown. […] FIG. 3F. […] FIG. 3G. […] FIG. 3H.

[5] = even on exposure to air
Procedure: H9c2 cells were incubated for 30 min with vehicle, 2.5 μM cobinamide, or 5 μM rotenone, the latter in the absence or presence of 2.5 μM cobinamide, imisopasem, MnTBAP, or cobalamin; 5 μM MitoSOX was added during the last 10 min. The cells were incubated with 1 mg/ml DAPI for 3 min to counterstain nuclei, and then visualized under a fluorescence microscope. […] Equal-sized representative areas for each condition are shown for MitoSOX staining (red fluorescence) and the same area showing merged MitoSOX and DAPI staining. […] The amount of red fluorescence was quantified by Image J analysis. Data are the mean±SD of three independent experiments; in each experiment two separate equal-sized areas were analyzed containing ˜75 cells per area. […] H9c2 cells were incubated for 10 min with 10 μM JC-1, washed once with PBS, and then incubated for 30 min with vehicle, 2.5 μM cobinamide, or 5 μM rotenone in the absence or presence of 2.5 μM of the indicated drugs as described in Panels A, B. FIG. 3C. Cells were visualized under a fluorescence microscope and equal-sized representative areas of each condition are shown, with red and green fluorescence shown for the same area. […] The amount of red and green fluorescence was quantified by Image J analysis and the red to green ratio was calculated. The slides were analyzed by an operator who was blinded to the specific conditions. Data are the mean±SD of three independent experiments; in each experiment two separate equal-sized areas were analyzed containing ˜75 cells per area. […] Blots from four independent experiments were analyzed by densitometric scanning (Li-Cor Odyssey software) in a range where band intensity was linear. The ratio of the pJNK band to GAPDH was calculated, and the results normalized to control untreated cells. […] The UV-visible spectrum of Chi(III) in 50 mM potassium phosphate buffer, pH 7.4 was recorded before (black line) and immediately after adding a three-fold molar excess of ascorbate (blue line), cysteine (teal line), or reduced glutathione (GSH, pink line). […]

[6] = literature values, cited from earlier work; for Rate constant, reaction with nitric oxide (·NO), published: second order
[7] = system: H9c2 rat embryonal cardiomyocytes; assay: Mitochondrial superoxide content, MitoSOX Red fluorescence; format: cell-based; settings: H9c2, 5 μM rotenone 30 min, drugs at 2.5 μM
Procedure: as §3
H9c2 cells were plated on glass cover slips in 24 well dishes, and 16 h later the medium was changed to phenol red-free DMEM supplemented with 20 mM Hepes, 0.1% fetal bovine serum, and 0.5% bovine serum albumin. […] MitoSOX Red is a dihydroethidium derivative containing triphenyl-phosphonium, which localizes it to respiring mitochondria. Its reaction with O2·^− yields 2-hydroxy-mitoethidium (2-OH-Mito-E″), whereas its reaction with other oxidative species yields mitoethidium (Mito-E^+)^67. These two oxidative derivatives have overlapping fluorescence spectra, but they can be distinguished by high performance liquid chromatography (HPLC)^68. Rotenone increased 2-OH-Mito-E^+ about two-fold, without increasing Mito-E^+. Thus, any increased fluorescence observed on treating cells with rotenone could be ascribed to an increase in 2-OH-Mito-E^+, and decreased fluorescence by an anti-oxidant in rotenone-treated cells was likely from a decrease in 2-OH-Mito-E^+.
(§4) The cells were then washed once with PBS, placed back in the DMEM experimental medium, and incubated with the indicated drugs for 30 min. At the end of the incubation period, nuclei of both the MitoSOX Red- and JC-1-treated cells were stained with […] 4′,6-diamidino-2-phenyl-indole (DAPI) for 3 min, washed once with PBS, and returned to the DMEM experimental medium. The cover slips were removed from the wells, mounted in the DMEM experimental medium, and red (MitoSOX Red and JC-1 aggregates), green (JC-1 monomers), and blue (DAPI) fluorescence intensity was assessed using a Keyence BZ-X700 fluorescence microscope at the following paired excitation/emission wavelengths, respectively: 560/630, 490/525, and 360/460 nm.
To assess if cobinamide reduces oxidative stress in cells and to compare its […] efficacy to that of cobalamin, imisopasem, and MnTBAP, several sets of experiments were performed. First, whether cobinamide reduces mitochondrial-generated O2·^− was evaluated using the fluorescent probe MitoSOX Red. H9c2 rat embryonal cardiomyocytes were treated with rotenone, an inhibitor of complex I, to increase mitochondrial O2·^−. […] Monitoring the UV-visible spectrum of cobinamide is a sensitive means to assess ligand binding^38.

H9c2 cells = assay: Mitochondrial membrane potential, JC-1 red to green fluorescence; format: cell-based, rat; settings: H9c2, 5 μM rotenone 30 min, drugs at 2.5 μM
Procedure: as §3, §4
Increased mitochondrial O2·^− by rotenone would be expected to reduce the mitochondrial membrane potential (ΔΨm), due in part to activation of uncoupling proteins^39. […] Rotenone caused an almost complete loss of red fluorescence and a striking increase in green fluorescence in the cells, indicating a marked decrease in ΔΨm (FIGS. 3C-3D).

COS-7 cells = system: COS-7 cells
Procedure: as §3
Finally, whether cobinamide could alleviate the effects of oxidative stress induced by yet another mechanism in a different cell type was tested using paraquat-treated COS-7 cells. Paraquat generates O2·^− through a redox cycling mechanism and increases both intracellular O2·^− and H2O2^42.

D. melanogaster = assay: Survival of fruit flies during paraquat poisoning; format: in vivo
Procedure: The number of live flies was counted each day for 7 d. The experiment was repeated seven times, for a total of 70 flies per condition. The percent surviving flies was calculated; error bars represent standard deviations and are shown in one direction only for sake of clarity. […] Chi, cobinamide in Panel A and histidyl-cobinamide in Panels B-K; Imp, imisopasem; MnTP, MnTBAP; CbL, cobalamin; DNPH, 2,4-dinitrophenylhydrazine; ND, non-diabetic; D, diabetic; Veh, vehicle.
To test cobinamide in a whole animal, D. melanogaster was selected for initial studies, and oxidative stressed was increased in the files by administering paraquat in their food. Cobinamide was again compared to imisopasem, MnTBAP, and hydroxocobalamin, all administered in food.

[8] = second order; literature values; cited from earlier work
[9] = literature values; not strictly comparable with third-order constants; cited from earlier work
[10] = second order; literature values; cited from earlier work; remark: listed apart in the source

C/C1=C2/[N-][C@H]([C@H](CC(N)=O)[C@@]2(C)CCC(=O)NC[C@@H](C)O)[C@]2(C)N=C(/C(C)=C3N=C(/C=C4N=C1[C@@H](CCC(N)=O)C\4(C)C)[C@@H](CCC(N)=O)[C@]\3(C)CC(N)=O)[C@@H](CCC(N)=O)[C@]2(C)CC(N)=O.[Co] [Cbi(II)]
Apparent rate constants, reaction with O2·^− ([1]; hypoxanthine-xanthine oxidase-cytochrome c reduction system, catalase included, exponent shared in the sentence): 1.92e+08 M⁻¹ s⁻¹ | Apparent rate constant, reaction with superoxide (O2·^−) [1]: 1.9e+08 M⁻¹ s⁻¹ | Reaction order with respect to the cobinamide species in the reaction with H2O2 ([2]; 50 μM H2O2): 0.7 | Apparent rate constant, reaction with hydrogen peroxide (H2O2) ([2]; third order, H2O2-specific sensor, new data of this study): 3.7 × 10^4 M^−2 s^−1 | Fold higher ONOO^− rate constant than MnTBAP ([3]; compared with published MnTBAP value): > 50 fold | Fold higher ONOO^− rate constant than cobalamin(II) ([3]; compared with published cobalamin(II) value): more than 10 fold | Apparent rate constant, reaction with peroxynitrite (ONOO^−) ([3]; second order, stopped-flow, 10 μM peroxynitrite, new data of this study): 6.34×10^6 M^−1 s^−1 and 6.3 × 10^6 (^c) ^ M^−1 s^−1 | JNK phosphorylation in H2O2-treated cells [4]: reduced JNK phosphorylation to a level that was indistinguishable from vehicle-treated cells | JNK phosphorylation or total cellular JNK in the absence of H2O2 ([4]; H9c2, drug alone): neither Cbi(III), Cbi(II) nor the other three drugs affected JNK phosphorylation | Persistence of the reduced state [5]: remains in the reduced state for several hours | Ka, binding of nitric oxide (·NO), published [6]: Ka: 1.3 × 10^10 (51) M^−1

[Cl-].[Cl-].[Mn+2].c1cc2nc(c1)CN[C@@H]1CCCC[C@H]1NCCN[C@@H]1CCCC[C@H]1NC2 [Imisopasem, imisopasem manganese]
MitoSOX red fluorescence in rotenone-treated cells [7]: reduced the fluorescent signal substantially | JC-1 red to green fluorescence ratio (ΔΨm) in rotenone-treated cells (H9c2 cells): modest degrees of recovery | JNK phosphorylation in H2O2-treated cells [4]: small non-significant effects | Effect on cell growth of paraquat-treated cells (COS-7 cells; COS-7, 1 mM paraquat 3 h, 100 μM drug, counted 48 h later): neither imisopasem nor MnTBAP had an effect | Effect on mortality of paraquat-exposed flies (D. melanogaster; 20 mM paraquat with 0.8 mM drug in food, over 7 d): no significant effect | Rate constant, reaction with superoxide (O2·^−), published [8]: 1.6e+07 M⁻¹ s⁻¹ | Rate constant, reaction with hydrogen peroxide (H2O2), published [9]: 8.2 | Rate constant, reaction with peroxynitrite (ONOO^−), published [10]: No activity (26) | Rate constant, reaction with nitric oxide (·NO), published [6]: No activity (26)

hydroxo-cobalamin
Apparent rate constant, reaction with superoxide (O2·^−) [1]: 9.4e+06 M⁻¹ s⁻¹ | MitoSOX red fluorescence in rotenone-treated cells [7]: reduced the fluorescent signal substantially | JC-1 red to green fluorescence ratio (ΔΨm) in rotenone-treated cells (H9c2 cells): modest degrees of recovery | JNK phosphorylation in H2O2-treated cells [4]: no effect | Effect on cell growth of paraquat-treated cells (COS-7 cells): improved cell growth | Effect on mortality of paraquat-exposed flies (D. melanogaster; in vivo): no significant effect | Rate constant, reaction with hydrogen peroxide (H2O2), published [9]: 4.5 × 10^6 | Rate constant, reaction with nitric oxide (·NO), published [6]: No activity (51, 71)
